These results are taken from patent publication US9101566B2, “Fermentation product of cereal plant-derived material and immunomodulator” (KIRIN HOLDINGS KABUSHIKI KAISHA, priority 2009, dated 2015).

Test [1] relates to CD4+ T cells in regional lymph node cells and spleen cells of EAE mice. The experiment in a line: EAE model, day 11 autopsy: CD4+ T cell proliferation (CFSE). It is filed as in vivo, mouse. Here is the method: (§1) On day 0, the 35-55 peptide (MOG35-55, Operon), a glycoprotein of myelin oligodendroglial cells, as an antigen was mixed with complete Freund's adjuvant (CFA, Difco) and then the mixture was subcutaneously administered at a dose of 200 μg/animal. Subsequently, pertussis toxin (Wako Pure Chemical Industries, Japan) was intraperitoneally administered at a dose of 200 ng/animal on day 1 and day 3, thereby inducing the onset of multiple sclerosis. During days 7 to 18, 14-DHE was intraperitoneally administered at a dose of 10 μg/animal once a day. To the vehicle group, the following solvent for 14-DHE was administered: 10% ethanol (Wako Pure Chemical Industries, Japan)/10% Cremophor (Wako Pure Chemical Industries, Japan)/80% PBS (Takara, Japan).
Mice were autopsied on day 11 (when inflammation was thought to take place in vivo) to obtain biochemical data.
(3) Regional lymph node cells and spleen cells were stained using the CellTrace CFSE Proliferation kit (Molecular Probes). The stained cells were seeded at a concentration of 1×10^6 cells/mL and then cultured for 3 days with stimulation with 2 μM MOG. Cells were recovered, stained with CD3-PerCP and CD4-APC, and then subjected to FACS analysis. Cell proliferation was evaluated as a proportion of cells with decreased CFSE fluorescence intensity in all cells.

Test [2] has as its system human DCs from peripheral blood CD14-positive cells. The experiment in a line: Human regulatory DC-inducing activity of 14-DHE (Example 16). In kind it is cell-based. Particulars: 14-DHE 1, 3 or 10 μM; ergosterol 10 μM; LPS/IFN-γ or cytokine cocktail 24 h. How it is done: Mononuclear cells were prepared from human peripheral blood by density-gradient centrifugation using Ficoll-Paque (GE Healthcare, Japan). These cells were subjected to positive selection using anti-human CD14 MACS beads (Miltenyi Biotec), so that CD14-positive cells were obtained. CD14-positive cells were cultured in RPMI1640 media (containing 10% FBS (Invitrogen), 50 μmol/L 2-mercaptoethanol (Wako Pure Chemical Industries, Japan), 50 U/mL penicillin, and 50 μg/mL streptomycin (Gibco) (Sigma Aldrich)) supplemented with recombinant human GM-CSF (800 U/mL, Leukine, Berlex) and recombinant human IL-4 (100 ng/mL, Peprotech). During culture, medium exchange was performed once every 2 days. On day 7 of culture, 14-DHE was added at a concentration of 1 μM, 3 μM, or 10 μM. To a control, 10 μM ergosterol, which was a related substance, was added. Also, to a negative control, 1% ethanol, which was a solvent for 14-DHE, was added. The cells were recovered on day 8 of culture, counted, and then suspended at a density of 3×10^5 cells/mL in the above media. To cell suspensions, 1 μg/mL LPS and 100 ng/mL IFN-γ (both, Sigma Aldrich), or cytokine cocktail (1 μg/mL PGE2 (Sigma Aldrich), 10 ng/mL TNF-α, 2 μg/mL IL-6, and 10 ng/mL IL-1β (3 (all, BD Bioscience)) were added, followed by 24-hour culture. After culture, the cells were stained for CD86, HLA-DR, and CD80. Antibodies used were all produced by BD Bioscience. The gate of DCs was set by FSC and SSC, and the expression levels of these cell surface markers were analyzed.

Test [3] deals with C57BL/6 mDCs co-cultured with BALB/c CD4+CD62L+ T cells. The experiment in a line: Cytokine profile of CD4+ T cells induced by DCs treated with 14-DHE, MLR (Example 11). In kind it is cell-based, mouse. Particulars: 14-DHE 3 μM, day 4 supernatant, vs control mDC. Here is the method: In a manner similar to that described in the above Examples, bone marrow cells were prepared from C57BL/6 mouse thigh bone, and then dendritic cells were induced using Flt-3L. 14-DHE was added at 3 μM simultaneously with the initiation of culture. Seven days later, Salmonella typhosa-derived LPS (Sigma Aldrich) was added at 5 ng/mL and then 24 hours later, cells were recovered. Subsequently, CD11c^+CD11b^+ was set as a gate for mDCs and then recovered cells were sorted. Next, from the BALB/c mouse spleen, CD4^+CD62L^+ T cells were isolated using the CD4^+CD62L^+ T cell isolation kit II (mouse) (Miltenyi Biotec), followed by mixed culture at a ratio of mDC:CD4^+T cell of 1:5. As a control, mDC prepared in the absence of 14-DHE was used. A culture supernatant on day 4 of culture was recovered, and then TNF-α, IFN-γ, IL-6, IL-10, and IL-17 were measured by ELISA. As ELISA kits, Mouse TNF-α Ready-SET-Go! (eBioscience), a BD OptEIA Mouse IFN-γ ELISA set (BD Life Science), Mouse IL-6 Ready-SET-Go! (eBioscience), a BD OptEIA Mouse IL-10 ELISA set (BD Life Science), and Mouse IL-17 DuoSet ELISA (R&D Systems) were separately used.

Test [4] relates to C57BL/6 mDCs co-cultured with BALB/c CD8+ T cells. Put plainly: CD8+ Treg differentiation-inducing capacity of DCs treated with 14-DHE (Example 12). It is filed as cell-based, mouse. Particulars: mDC:CD8+ T 1:10; 0.5 ng/mL TGF-α 3; 5 days. How it is done:
In a manner similar to Example 11, mDCs were sorted from DCs induced from C57BL/6 mouse bone marrow cells in the presence of 14-DHE and Flt-3L. Next, CD8^+ T cells were isolated from the BALB/c mouse spleen using the CD8α^+ T cell isolation kit (mouse) (Miltenyi Biotec). Cells were mixed at a ratio of mDC:CD8^+ T cell of 1:10 and then cultured in the medium containing 0.5 ng/mL […] for 5 days. Five days later, the cells were recovered and then the proportion of CD25^+FoxP3^+ cells in CD8^+ T cells was determined using a flow cytometer. Prior to flow cytometry, cell staining was performed using CD8α-PE-Cy7, CD25-APC-Cy7, and CD3e-PerCP, cell membrane permeabilization treatment was performed using the FoxP3 staining buffer set (eBioscience), and then FoxP3-PE staining was performed.

Test [5] deals with multiple sclerosis model mouse (Experimental Autoimmune Encephalomyelitic; EAE). The experiment in a line: Multiple sclerosis model mouse (EAE): disease score (Example 15). The following applies: 10 μg/animal i.p. once a day, days 7 to 18; vs vehicle group. It is filed as in vivo. How it is done:
Eight-week-old female C57BL/6 mice were divided into the following 2 groups at 5 mice per group:
(2) 14-DHE Group (10 μg/Animal)
as §1
During the experimental period (i.e., during days 0 to 20), disease score was determined based on the following criteria:
Score 1: Unable to freely move tail
Score 2: Unable to normally walk
Score 3: Paralysis of one hindlimb
Score 4: Paralysis of both hindlimbs
Score 5: Paralysis of forelimbs and hindlimbs

On to `CC(C)[C@@H](C)/C=C/[C@@H](C)[C@H]1CC=C2C3=CC=C4C[C@@H](O)CC[C@]4(C)[C@H]3CC[C@@]21C` [Sample 14-DHE, ergosta-5,7,14,22-tetraen-3β-ol], for which the “proliferation rate of CD4+ T cells in lymph node cells” value in test [1] was “decreasing trend”. The “proliferation rate of CD4+ T cells in spleen cells” value in test [1] (with or without re-stimulation with MOG antigen) is given as “significant decrease”. Also, in test [2], the “expression level of CD80 on human DCs” value is on record as “decreased”, the “expression level of CD86 on human DCs” value is given as “decreased” and the “expression level of MHC class II molecule HLA-DR on human DCs” value is on record as “decreased”. Moreover, in test [3], the “IFN-γ production (ELISA)” value was “significant decreases”, the “IL-6 production (ELISA)” value is “significant decreases”, the “IL-10 production (ELISA)” value is given as “no statistically significant difference was observed” and the “IL-17 production (ELISA)” value was “significant decreases”. Also, the “TNF-α production (ELISA)” value in test [3] is on record as “significant decreases”. The “induction of CD8+CD25+FoxP3+ cells compared with control mDCs” value in test [4] is reported as no less than 3 times. Also, in test [5], the accumulated disease score result was “decreases were confirmed”, the incidence result is “decreases were confirmed”, the maximum score entry is on record as “decreases were confirmed” and the onset entry is “delayed onset”.
